Source: patent publication US8143263B2, “Therapeutic agents” (Astrazeneca AB, priority 2008, dated 2012)

These compounds were tested against T1, recombinant human pancreatic GLK (Homo sapiens, UniProt P35557) (assay: biochemical).
T1 sequence (P35557 1-465): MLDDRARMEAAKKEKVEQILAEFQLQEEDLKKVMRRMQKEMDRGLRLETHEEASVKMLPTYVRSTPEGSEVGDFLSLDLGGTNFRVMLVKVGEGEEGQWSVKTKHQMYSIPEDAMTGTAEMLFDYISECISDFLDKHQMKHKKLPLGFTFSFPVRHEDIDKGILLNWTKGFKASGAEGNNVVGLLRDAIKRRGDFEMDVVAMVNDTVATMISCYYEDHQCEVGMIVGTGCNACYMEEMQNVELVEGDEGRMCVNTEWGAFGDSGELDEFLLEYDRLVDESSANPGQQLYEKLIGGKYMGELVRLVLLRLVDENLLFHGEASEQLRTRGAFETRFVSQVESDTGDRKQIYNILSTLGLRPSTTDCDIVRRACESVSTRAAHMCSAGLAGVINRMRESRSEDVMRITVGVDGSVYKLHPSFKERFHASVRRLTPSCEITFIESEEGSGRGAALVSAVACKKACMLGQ
With COCC[C@H](Oc1ncnc2c1cnn2-c1ccccc1OC)C(=O)Nc1nc(C)cs1 [Example 37, (S)-4-methoxy-2-{[1-(2-methoxyphenyl)-1H-pyrazolo[3,4-d]pyrimidin-4-yl]oxy}-N-(4-methyl-1,3-thiazol-2-yl)butanamide] the EC50 was 1300 nM. N#Cc1cccc(Cl)c1-n1ncc2c(O[C@@H](COCCO)C(=O)Nc3ccc(F)cn3)ncnc21 [Example 237, (2S)-2-[1-(2-chloro-6-cyano-phenyl)pyrazolo[3,4-d]pyrimidin-4-yl]oxy-N-(5-fluoro-2-pyridyl)-3-(2-hydroxyethoxy)propanamide] gave an EC50 of 470 nM. For CCC(C)C(Sc1ncnc2c1cnn2-c1ccccc1Cl)C(=O)Nc1nc(C)cs1 (stereo not shown) [Example 54, 2-{[1-(2-chlorophenyl)-1H-pyrazolo[3,4-d]pyrimidin-4-yl]thio}-3-methyl-N-(4-methyl-1,3-thiazol-2-yl)pentanamide], the EC50 was 4000 nM. In the case of Cc1cccnc1-n1ncc2c(O[C@@H](COC(C)C)C(=O)Nc3ccc(Cl)cn3)ncnc21 [Example 127b, (2S)—N-(5-chloropyridin-2-yl)-3-isopropoxy-2-(1-(3-methylpyridin-2-yl)-1H-pyrazolo[3,4-d]pyrimidin-4-yloxy)propanamide], the EC50 is reported as 840 nM. Cc1cnc(NC(=O)[C@H](COC2CCC2)Oc2ncnc3c2cnn3-c2cccnc2C)cn1 [Example 149, (2S)-3-cyclobutoxy-N-(5-methylpyrazin-2-yl)-2-(1-(2-methylpyridin-3-yl)-1H-pyrazolo[3,4-d]pyrimidin-4-yloxy)propanamide] was tested, and the EC50 was 660 nM. Work on N#Cc1cccc(Cl)c1-n1ncc2c(O[C@@H](CN3CC(O)C3)C(=O)Nc3ccc(F)cn3)ncnc21 [Example 242, (2S)-2-[1-(2-chloro-6-cyano-phenyl)pyrazolo[3,4-d]pyrimidin-4-yl]oxy-N-(5-fluoro-2-pyridyl)-3-(3-hydroxyazetidin-1-yl)propanamide] yielded an EC50 of 220 nM. CC(C)OC[C@H](Oc1ncnc2c1cnn2-c1ncccc1Cl)C(=O)Nc1nc(C#N)cs1 [Example 127h, (2S)-2-[1-(3-chloro-2-pyridyl)pyrazolo[4,5-e]pyrimidin-4-yl]oxy-N-(4-cyanothiazol-2-yl)-3-isopropoxy-propanamide] gave an EC50 of 6400 nM. With C[C@H](CO)OC[C@H](Oc1ncnc2c1cnn2-c1ncccc1Cl)C(=O)Nc1ccc(C#N)cn1 [Example 189, (2S)-2-(1-(3-chloropyridin-2-yl)-1H-pyrazolo[3,4-d]pyrimidin-4-yloxy)-N-(5-cyanopyridin-2-yl)-3-((R)-1-hydroxypropan-2-yloxy)propanamide] the EC50 was 600 nM. O=C(Nc1ccccn1)[C@H](CN1CC(O)C1)Oc1ncnc2c1cnn2-c1c(F)cccc1Cl [Example 222, (2S)-2-[1-(2-chloro-6-fluoro-phenyl)pyrazolo[3,4-d]pyrimidin-4-yl]oxy-3-(3-hydroxyazetidin-1-yl)-N-(2-pyridyl)propanamide] was tested, and the EC50 was 140 nM. With COCCC(Oc1ncnc2c1cnn2-c1ccccc1OC)C(=O)Nc1ccc(C)cn1 (stereo not shown) [Example 22, 4-Methoxy-2-{[1-(2-methoxyphenyl)-1H-pyrazolo[3,4-d]pyrimidin-4-yl]oxy}-N-(5-methylpyridin-2-yl)butanamide] the EC50 was 190 nM. Compound Cc1ccc(NC(=O)[C@H](COCCO)Oc2ncnc3c2cnn3-c2c(Cl)cccc2C#N)nc1 [Example 176, (2S)-2-(1-(2-chloro-6-cyanophenyl)-1H-pyrazolo[3,4-d]pyrimidin-4-yloxy)-3-(2-hydroxyethoxy)-N-(5-methylpyridin-2-yl)propanamide] has an EC50 of 380 nM. For CCOC[C@H](Oc1ncnc2c1cnn2-c1cccnc1C)C(=O)Nc1ccc(Cl)cn1 [Example 150, (2S)—N-(5-chloropyridin-2-yl)-3-ethoxy-2-(1-(2-methylpyridin-3-yl)-1H-pyrazolo[3,4-d]pyrimidin-4-yloxy)propanamide], the EC50 was 1000 nM. In the case of CC(C)OCC(Oc1ncnc2c1cnn2-c1ccccc1Cl)C(=O)Nc1ncccn1 (stereo not shown) [2-[1-(2-chlorophenyl)pyrazolo[4,5-e]pyrimidin-4-yl]oxy-3-isopropoxy-N-pyrimidin-2-yl-propanamide], the EC50 is reported as > 100000 nM. COC[C@@H](Oc1ncnc2c1cnn2-c1ccccc1Cl)C(=O)Nc1ccc(C)cn1 [Example 88, (2R)-2-(1-(2-chlorophenyl)-1H-pyrazolo[3,4-d]pyrimidin-4-yloxy)-3-methoxy-N-(5-methylpyridin-2-yl)propanamide] gave an EC50 of 5100 nM. COCC[C@@H](Oc1ncnc2c1cnn2-c1ccccn1)C(=O)Nc1ccc(C)cn1 [(R)-4-methoxy-N-(5-methyl-2-pyridyl)-2-[1-(2-pyridyl)pyrazolo[4,5-e]pyrimidin-4-yl]oxy-butanamide] was tested, and the EC50 was > 100000 nM. Cc1ccc(NC(=O)[C@H](COC(C)C)Oc2ncnc3c2cnn3-c2ncccc2C(F)(F)F)nc1 [Example 126, (2S)-3-Isopropoxy-N-(5-methylpyridin-2-yl)-2-(1-(3-(trifluoromethyl)pyridin-2-yl)-1H-pyrazolo[3,4-d]pyrimidin-4-yloxy)propanamide] showed an EC50 of 570 nM. Cc1ccc(NC(=O)[C@H](COC(C)C)Oc2ncnc3c2cnn3-c2ccccc2C(F)(F)F)nc1 [Example 160, (2S)-3-isopropoxy-N-(5-methylpyridin-2-yl)-2-(1-(2-(trifluoromethyl)phenyl)-1H-pyrazolo[3,4-d]pyrimidin-4-yloxy)propanamide] gave an EC50 of 280 nM. With CC(C)OCC(Oc1ncnc2c1cnn2-c1ccccc1Cl)C(=O)Nc1cnccn1 (stereo not shown) [Example 108, 2-[1-(2-Chlorophenyl)pyrazolo[4,5-e]pyrimidin-4-yl]oxy-3-isopropoxy-N-pyrazin-2-yl-propanamide] the EC50 was 1300 nM. COCCC(Oc1ncnc2c1cnn2-c1ccccc1OC)C(=O)Nc1nc(C)cs1 (stereo not shown) [Example 35, 4-Methoxy-2-{[1-(2-methoxyphenyl)-1H-pyrazolo[3,4-d]pyrimidin-4-yl]oxy}-N-(4-methyl-1,3-thiazol-2-yl)butanamide] showed an EC50 of 2100 nM. In the case of C[C@H](CO)OC[C@H](Oc1ncnc2c1cnn2-c1c(Cl)cccc1C#N)C(=O)Nc1ccc(F)cn1 [Example 246, (2S)-2-[1-(2-chloro-6-cyano-phenyl)pyrazolo[3,4-d]pyrimidin-4-yl]oxy-N-(5-fluoro-2-pyridyl)-3-[(1R)-2-hydroxy-1-methyl-ethoxy]propanamide], the EC50 is reported as 220 nM. COCC[C@H](Oc1ncnc2c1cnn2-c1ccccc1Cl)C(=O)Nc1ccc(C)cn1 [Example 21, (S)-2-{[1-(2-chlorophenyl)-1H-pyrazolo[3,4-d]pyrimidin-4-yl]oxy}-4-methoxy-N-(5-methylpyridin-2-yl)butanamide] showed an EC50 of 32 nM. Compound Cc1cnc(NC(=O)[C@H](CN2CC(O)C2)Oc2ncnc3c2cnn3-c2c(Cl)cccc2C#N)cn1 [Example 239, (2S)-2-[1-(2-chloro-6-cyano-phenyl)pyrazolo[3,4-d]pyrimidin-4-yl]oxy-3-(3-hydroxyazetidin-1-yl)-N-(5-methylpyrazin-2-yl)propanamide] has an EC50 of 490 nM. Cc1ccc(NC(=O)[C@H](CN2CC(O)C2)Oc2ncnc3c2cnn3-c2ncccc2Cl)nc1 [Example 206, (2S)-2-(1-(3-chloropyridin-2-yl)-1H-pyrazolo[3,4-d]pyrimidin-4-yloxy)-3-(3-hydroxyazetidin-1-yl)-N-(5-methylpyridin-2-yl)propanamide] gave an EC50 of 570 nM. CCOC[C@H](Oc1ncnc2c1cnn2-c1cccc(Cl)c1Cl)C(=O)Nc1ccc(C#N)cn1 [Example 214, (2S)—N-(5-cyanopyridin-2-yl)-2-(1-(2,3-dichlorophenyl)-1H-pyrazolo[3,4-d]pyrimidin-4-yloxy)-3-ethoxypropanamide] was tested, and the EC50 was 320 nM. COC[C@H](Oc1ncnc2c1cnn2-c1ccccc1)C(=O)Nc1ccc(C)cn1 [Example 107, (S)-3-Methoxy-N-(5-methylpyridin-2-yl)-2-(1-phenyl-1H-pyrazolo[3,4-d]pyrimidin-4-yloxy)propanamide] gave an EC50 of 3600 nM. In the case of COCCC(Oc1ncnc2c1cnn2-c1ccccn1)C(=O)Nc1ccc(C)cn1 (stereo not shown) [Example 34, 4-Methoxy-N-(5-methylpyridin-2-yl)-2-[(1-pyridin-2-yl-1H-pyrazolo[3,4-d]pyrimidin-4-yl)oxy]butanamide], the EC50 is reported as 1900 nM. CCOC[C@H](Oc1ncnc2c1cnn2-c1ncccc1Cl)C(=O)Nc1ccc(S(C)(=O)=O)cn1 [Example 139, (2S)-2-(1-(3-chloropyridin-2-yl)-1H-pyrazolo[3,4-d]pyrimidin-4-yloxy)-3-ethoxy-N-(5-(methylsulfonyl)pyridin-2-yl)propanamide] gave an EC50 of 1400 nM. Cc1ccc(NC(=O)[C@H](CCCO)Oc2ncnc3c2cnn3-c2ncccc2Cl)nc1 [Example 131, (2S)-2-[1-(3-chloropyridin-2-yl)pyrazolo[4,5-e]pyrimidin-4-yl]oxy-5-hydroxy-N-(5-methylpyridin-2-yl)pentanamide] was tested, and the EC50 was 410 nM. Compound Cc1c(C#N)cccc1-n1ncc2c(O[C@@H](COCCO)C(=O)Nc3ccc(Cl)cn3)ncnc21 [Example 209, (2S)—N-(5-chloropyridin-2-yl)-2-(1-(3-cyano-2-methylphenyl)-1H-pyrazolo[3,4-d]pyrimidin-4-yloxy)-3-(2-hydroxyethoxy)propanamide] has an EC50 of 1500 nM. O=C(Nc1ccc(Cl)cn1)[C@H](CN1CC(O)C1)Oc1ncnc2c1cnn2-c1ccccc1Cl [Example 226, (2S)-2-[1-(2-chlorophenyl)pyrazolo[3,4-d]pyrimidin-4-yl]oxy-N-(5-chloro-2-pyridyl)-3-(3-hydroxyazetidin-1-yl)propanamide] showed an EC50 of 130 nM. Cc1ccc(NC(=O)[C@H](COC(C)C)Oc2ncnc3c2cnn3-c2ncccc2Cl)nc1 [Example 91, (2S)-2-(1-(3-chloropyridin-2-yl)-1H-pyrazolo[3,4-d]pyrimidin-4-yloxy)-3-isopropoxy-N-(5-methylpyridin-2-yl)propanamide] gave an EC50 of 160 nM.
